Experimental data published in patent US20050165225A1, “Novel cytokine isolated from an insect” (priority 2003, published 2005).
Where no end group is shown, it is not given here.

Assays:
[1] = system: High five cells; assay: Cell proliferation assay ([3H] thymidine incorporation); type: cell-based, Trichoplusia ni; settings: serum-free Grace's medium, test substance ~1,000 nM, cultured 32 hours (FIG. 3)
Procedure: Cultured insect cells of “High five” was purchased from Invitrogen (Holland) and maintained in Grace's medium containing 5% fetus bovine serum. The cells during the exponential growth period were used in the following treatment. After the cells were cultured in a culture solution containing only Grace's medium (with no fetus bovine serum) for 2 days, they were divided into two groups. To one group (novel cytokine group), a peptide according to the present invention was added as a test substance in an amount of ˜1,000 nM. To the other group (control group), bovine serum albumin (BSA) was added as a test substance in an amount of ˜1000 nM. Both groups were cultured for 32 hours in Grace's medium containing 0.5 μCi of [^3H] thymidine. Subsequently, Both groups of cells were washed three times with a phosphate buffered saline (8 mM Na2HPO4, 1.5 mM KH2PO4, 137 mM NaCl, 2.7 mM KCL, pH 7.2). Thereafter, 100 μl of 0.3 N NaOH was added to both groups of cells to lyse the cells. The lysed cells were subjected to the liquid scintillation counter (Aloka LSC-5100 manufactured by Aloka, Japan). In this way, the radioactive count of [^3H] thymidine, which had been incorporated in the cells of each group during culturing, was determined.

[2] = system: hemocytes of a fly (Lucilia cuprina); assay: Hemocyte aggregation assay; type: cell-based; settings: 10 nM test substance, incubated for about 20 minutes, L. cuprina larval hemocytes, microscopy (FIG. 2)
Procedure: Preparation of Hemolymph for Use in Functional Analysis
Blood (hemolymph) was taken from the 3rd instar flies (Lucilia cuprina) after 24 to 36 hours from molting in an anti-coagulant solution (98 mM NaOH, 186 mM NaCl, 17 mM Na2 EDTA and 41 mM citric acid, pH 4.5). Hemolymph was obtained as sediment by centrifuging at 400 g for one minute, suspended in the anti-coagulation solution, incubated at 4° C. for 30 minutes, and subjected to centrifugal separation at 400 g for one minute to collect hemolymph. The hemolymph thus collected was resuspended in Ex-cell 400 medium (manufactured by JRH bioscience, USA)
Using hemolymph prepared above, an ability of a peptide according to the present invention for aggregating hemocytes was evaluated. 5 μl of a test substance (so as to obtain a final concentration of 10 nM) and 30 μl of a blood cell suspension solution were delivered to 96 wells of a culture plate so as to obtain a cell concentration of 1×10^4 cells/well. As the test substance, a peptide according to the present invention (a final concentration of 10 nM) or bovine serum albumin (a final concentration of 10 nM) as a control was used. The mixture was observed by an inverted phase-contrast microscope (Olympus IX-70) to detect hemocyte aggregation.

Substance | [^3H] thymidine incorporation [1] | hemocyte aggregation [2]
TILSAPSNCQQTDFKGRCL (cysteine pairing not given here) [19-residue peptide cytokine purified from hemolymph of Lucilia cuprina larvae] | increased in a pepetide-concentration dependent manner | hemocyte aggregation is observed
bovine serum albumin (BSA): bovine serum albumin used as a control test substance | not increased | scattered without causing aggregation
